Reference: patent publication US7208502B2, “Methods of treating conditions associated with an Edg-3 receptor” (Maniv Energy Capital, priority 2002, dated 2007)

Columns and labels:
Histamine H1, Central = target: T1, Histamine H1, Central (Cavia porcellus, UniProt P31389); assay: Radioligand binding assay, 3H Pyrilamine; set-up: species or system Guinea pig; details: 10 μM; significance criteria ≧50% of max stimulation or inhibition
T1 construct: from tissue; host or cells: guinea pig cerebellum
Protocol: (§1) In order to test the selectivity of compounds, various enzyme assays as well as radioligand binding assays were performed using numerous non-Edg receptor targets as listed below.
(§2) A radioligand binding assay was performed using adrenergic α1 according to the method of Greengrass and Bremner 1979, Eur. J. Pharmacol. 55:323–326. A radioligand binding assay was performed using adrenergic α2 according to the method of Boyajian and Leslie, 1987, J. Pharmacol. Exp. Ther. 241:1092–1098. A radioligand binding assay was performed using adrenergic β according to the method of Feve et al., 1994, Proc. Natl. Acad. Sci. USA 91:5677–5681. A radioligand binding assay was performed using angiotensin AT2 according to the method of Whitebread et al., 1991, Biochem. Biophys. Res. Comm. 181:1365–1371. A radioligand binding assay was performed using calcium channel Type L, dihydropyridine according to the method of Ehlert et al., 1982, Life Sci. 30:2191–2202. A radioligand binding assay was performed using dopamine D2L according to the method of Bunzo et al., 1988, Nature 336:783–787. A radioligand binding assay was performed using endothelin ETA according to the method of Mihara et al., 1994, J. Phrmacol. Exp Ther. 268:1122–1127. A radioligand binding assay was performed using histamine H1 Central according to the method of Hill et al., 1978, J. Neurochem. 31:997–1004. […]
(§3) Quantitation Method: Radioligand Binding […]

Angiotensin AT2 = target: T2, Angiotensin AT2 (Homo sapiens, UniProt P50052); assay: Radioligand binding assay, 125I CGP-42112A; details: 10 μM; significance criteria ≧50% of max stimulation or inhibition
T2 construct: expressed in transfected cells; host or cells: HeLa cells
T2 sequence (P50052 1-363): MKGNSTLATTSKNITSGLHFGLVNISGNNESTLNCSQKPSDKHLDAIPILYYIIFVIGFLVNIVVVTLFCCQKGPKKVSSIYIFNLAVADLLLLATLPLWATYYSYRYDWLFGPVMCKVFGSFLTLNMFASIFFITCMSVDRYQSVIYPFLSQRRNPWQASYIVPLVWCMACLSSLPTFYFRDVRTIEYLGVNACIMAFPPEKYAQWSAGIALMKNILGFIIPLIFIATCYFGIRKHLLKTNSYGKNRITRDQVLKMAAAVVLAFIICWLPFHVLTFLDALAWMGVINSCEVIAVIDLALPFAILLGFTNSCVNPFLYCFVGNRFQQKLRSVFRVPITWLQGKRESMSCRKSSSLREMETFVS
Protocol: as §1, §2, §3

Edg-5 = target: T3, Edg-5 (Homo sapiens, UniProt O95136); assay: Intracellular calcium assay, S1P-stimulated, HTC cells expressing Edg-5; type: cell-based; details: concentrations as high as 20 µM
T3 construct: expressed in transfected cells; host or cells: HTC rat hepatoma cells

Adrenergic α2 = assay: Radioligand binding assay, 3H Rauwolscine; set-up: species or system Wistar rat; details: 10 μM; significance criteria ≧50% of max stimulation or inhibition
Protocol: as §1, §2, §3

Edg-1 = target: T4, Edg-1 (Homo sapiens, UniProt P21453); assay: Intracellular calcium assay, S1P-stimulated, HTC cells expressing Edg-1; type: cell-based; details: concentrations as high as 20 µM
T4 construct: expressed in transfected cells; host or cells: HTC rat hepatoma cells
T4 sequence (P21453 whole entry): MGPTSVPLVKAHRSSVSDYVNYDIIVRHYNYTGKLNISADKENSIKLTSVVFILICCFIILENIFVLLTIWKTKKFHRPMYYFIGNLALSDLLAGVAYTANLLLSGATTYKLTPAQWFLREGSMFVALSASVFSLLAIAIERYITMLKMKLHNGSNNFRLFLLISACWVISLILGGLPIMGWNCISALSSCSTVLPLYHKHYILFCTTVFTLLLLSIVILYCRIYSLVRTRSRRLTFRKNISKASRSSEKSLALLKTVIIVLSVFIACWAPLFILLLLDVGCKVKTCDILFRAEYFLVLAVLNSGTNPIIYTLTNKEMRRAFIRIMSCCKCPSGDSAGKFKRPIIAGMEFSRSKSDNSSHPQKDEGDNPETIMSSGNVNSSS

T3 sequence (O95136 whole entry): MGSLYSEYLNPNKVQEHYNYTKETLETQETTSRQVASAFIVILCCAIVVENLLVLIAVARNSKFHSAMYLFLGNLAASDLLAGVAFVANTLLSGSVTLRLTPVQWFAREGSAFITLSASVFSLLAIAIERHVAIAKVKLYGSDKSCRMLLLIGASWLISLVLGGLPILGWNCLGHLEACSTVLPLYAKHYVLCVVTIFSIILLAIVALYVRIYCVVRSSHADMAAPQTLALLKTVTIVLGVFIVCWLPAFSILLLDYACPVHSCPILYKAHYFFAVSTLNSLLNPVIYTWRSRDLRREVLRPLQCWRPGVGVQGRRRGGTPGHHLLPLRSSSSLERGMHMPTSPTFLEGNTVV
T1 sequence (P31389 whole entry): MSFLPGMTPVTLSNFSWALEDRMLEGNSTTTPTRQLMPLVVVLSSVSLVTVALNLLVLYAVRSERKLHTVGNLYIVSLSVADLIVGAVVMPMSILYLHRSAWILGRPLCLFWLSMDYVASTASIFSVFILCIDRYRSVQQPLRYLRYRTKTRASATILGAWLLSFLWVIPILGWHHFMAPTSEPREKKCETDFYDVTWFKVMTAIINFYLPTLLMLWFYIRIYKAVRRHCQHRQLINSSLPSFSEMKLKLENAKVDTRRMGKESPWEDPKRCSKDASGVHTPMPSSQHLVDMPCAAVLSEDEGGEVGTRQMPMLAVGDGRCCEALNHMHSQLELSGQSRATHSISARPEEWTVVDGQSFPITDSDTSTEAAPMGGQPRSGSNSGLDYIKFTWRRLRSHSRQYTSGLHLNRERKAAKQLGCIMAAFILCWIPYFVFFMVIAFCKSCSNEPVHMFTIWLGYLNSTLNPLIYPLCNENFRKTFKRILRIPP

SMILES: Cc1c(-c2ccccc2)nc2ccccc2c1C(=O)NCc1ccc(F)cc1 [Compound 101, 3-methyl-2-phenyl-quinoline-4-carboxylic acid 4-fluoro-benzylamide]
- activity in standard binding assay, Histamine H1, Central (Histamine H1, Central): no activity
- activity in standard binding assay, Angiotensin AT2 (Angiotensin AT2): no activity
- inhibition of S1P-stimulated calcium increases, Edg-5 (Edg-5): did not inhibit
- activity in standard binding assay, Adrenergic α2 (Adrenergic α2): no activity
- inhibition of S1P-stimulated calcium increases, Edg-1 (Edg-1): did not inhibit
